Reference: patent US10167262B2, “Herbicidal substituted 3-arylpyrazoles” (FMC CORPORATION, priority 2014, dated 2019)

Columns and labels:
Assay type in all cases: in vivo
[1] = test system: chickweed (common chickweed, Stellaria media); test: Test C postemergence greenhouse test, plant response rating 0-100; conditions: for Plant response rating, Chickweed: scale 0 to 100
How it was run: (§1)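 Plants rated visually 0 (no effect) to 100 (complete control) against untreated controls after 13 to 15 days in the greenhouse, dash indicating no result. Treatment was a postemergence application of formulated chemicals at the 1- to 4-leaf stage (2 to 18 cm), in pots of peat-vermiculite medium.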

wild oat (Avena fatua) = test: as above; conditions: for Plant response rating, Oat, Wild: scale 0 to 100
How it was run: as §1

kochia (Kochia scoparia) = test: as above; conditions: for Plant response rating, Kochia: scale 0 to 100
How it was run: as §1

corn (Zea mays) = test: Test C pre-/postemergence greenhouse test, plant response rating 0-100
How it was run: (§2)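 Pre-emergence soil and post-emergence foliar sprays were applied simultaneously to seeded loam–sand pots and to 1–4-leaf plants in peat medium; greenhouse holding lasted 13–15 days, then plants were scored visually from 0 (no effect) to 100 (complete control).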

[2] = test system: Italian ryegrass (Lolium multiflorum); test: as above
How it was run: as §2

[3] = test system: ragweed (common ragweed, Ambrosia elatior); test: as above
How it was run: as §2

[4] = test system: pigweed (Amaranthus retroflexus); test: as above
How it was run: as §2

soybean (Glycine max) = test: as above
How it was run: as §2

[5] = test system: large (Lg) crabgrass (Digitaria sanguinalis); test: as above
How it was run: as §2

[6] = test system: giant foxtail (Setaria faberii); test: as above
How it was run: as §2

[7] = test system: galium (catchweed bedstraw, Galium aparine); test: as above
How it was run: as §2

[8] = test system: yellow nutsedge (Cyperus esculentus); test: as above
How it was run: as §2

[9] = test system: winter wheat (Triticum aestivum); test: as above
How it was run: as §2

[10] = test system: blackgrass (Alopecurus myosuroides); test: as above
How it was run: as §2

[11] = Postemergence, 250 g ai/ha, scale 0 to 100
[12] = Postemergence, 500 g ai/ha, scale 0 to 100
[13] = Preemergence, 0 to 100 scale (0 no effect, 100 complete control), rate 500 g ai/ha per head r3, sub-head of this section not shown

## O=C(c1ccccc1)c1cn(S(=O)(=O)CC(F)(F)F)nc1-c1cc(Cl)cc(Cl)c1 [Compound 3]
[1]; 62 g ai/ha
  Plant response rating (0 to 100), Chickweed: 100
[1]; 125 g ai/ha
  Plant response rating (0 to 100), Chickweed: 100
[1]; 250 g ai/ha
  Plant response rating, Chickweed: 100
[1]; 500 g ai/ha
  Plant response rating, Chickweed: 100
Wild oat (Avena fatua); 62 g ai/ha
  Plant response rating (0 to 100), Oat, Wild: 0
Wild oat (Avena fatua); 125 g ai/ha
  Plant response rating (0 to 100), Oat, Wild: 0
Wild oat (Avena fatua); 250 g ai/ha
  Plant response rating, Oat, Wild: 0
Wild oat (Avena fatua); 500 g ai/ha
  Plant response rating, Oat, Wild: 0
Kochia (Kochia scoparia); 62 g ai/ha
  Plant response rating (0 to 100), Kochia: 80
Kochia (Kochia scoparia); 125 g ai/ha
  Plant response rating (0 to 100), Kochia: 85
Kochia (Kochia scoparia); 250 g ai/ha
  Plant response rating, Kochia: 85
Kochia (Kochia scoparia); 500 g ai/ha
  Plant response rating, Kochia: 85
Corn (Zea mays); Postemergence, 62 g ai/ha
  Plant response rating (0 to 100), Corn: 0
Corn (Zea mays); Postemergence, 125 g ai/ha
  Plant response rating (0 to 100), Corn: 5
Corn (Zea mays); [11]
  Plant response rating, Corn: 5
Corn (Zea mays); [12]
  Plant response rating, Corn: 5
Corn (Zea mays); Preemergence, 62 g ai/ha
  Plant response rating, Corn: 0
Corn (Zea mays); Preemergence, 125 g ai/ha
  Plant response rating, Corn: 0
Corn (Zea mays); Preemergence, 250 g ai/ha
  Plant response rating, Corn: 0
Corn (Zea mays); Preemergence, 500 g ai/ha
  Plant response rating, Corn: 0
[2]; Postemergence, 62 g ai/ha
  Plant response rating (0 to 100), Ryegrass, Italian: 0
[2]; Postemergence, 125 g ai/ha
  Plant response rating (0 to 100), Ryegrass, Italian: 0
[2]; [11]
  Plant response rating, Ryegrass, Italian: 0
[2]; [12]
  Plant response rating, Ryegrass, Italian: 0
[2]; Preemergence, 62 g ai/ha
  Plant response rating, Ryegrass, Italian: 0
[2]; Preemergence, 125 g ai/ha
  Plant response rating, Ryegrass, Italian: 0
[2]; Preemergence, 250 g ai/ha
  Plant response rating, Ryegrass, Italian: 0
[2]; Preemergence, 500 g ai/ha
  Plant response rating, Ryegrass, Italian: 0
[2]; [13]
  Plant response rating, Ryegrass, Italian: 0
[3]; Postemergence, 62 g ai/ha
  Plant response rating (0 to 100), Ragweed: 20
[3]; Postemergence, 125 g ai/ha
  Plant response rating (0 to 100), Ragweed: 25
[3]; [11]
  Plant response rating, Ragweed: 65
[3]; [12]
  Plant response rating, Ragweed: 65
[3]; Preemergence, 62 g ai/ha
  Plant response rating, Ragweed: 0
[3]; Preemergence, 125 g ai/ha
  Plant response rating, Ragweed: 0
[3]; Preemergence, 250 g ai/ha
  Plant response rating, Ragweed: 70
[3]; Preemergence, 500 g ai/ha
  Plant response rating, Ragweed: 95
[3]; [13]
  Plant response rating, Ragweed: 35
[4]; Postemergence, 62 g ai/ha
  Plant response rating (0 to 100), Pigweed: 85
[4]; Postemergence, 125 g ai/ha
  Plant response rating (0 to 100), Pigweed: 95
[4]; [11]
  Plant response rating, Pigweed: 100
[4]; Preemergence, 62 g ai/ha
  Plant response rating, Pigweed: 30
[4]; Preemergence, 125 g ai/ha
  Plant response rating, Pigweed: 100
[4]; Preemergence, 250 g ai/ha
  Plant response rating, Pigweed: 100
[4]; Preemergence, 500 g ai/ha
  Plant response rating, Pigweed: 100
Soybean (Glycine max); Postemergence, 62 g ai/ha
  Plant response rating (0 to 100), Soybean: 0
Soybean (Glycine max); Postemergence, 125 g ai/ha
  Plant response rating (0 to 100), Soybean: 0
Soybean (Glycine max); [11]
  Plant response rating, Soybean: 0
Soybean (Glycine max); [12]
  Plant response rating, Soybean: 0
Soybean (Glycine max); Preemergence, 62 g ai/ha
  Plant response rating, Soybean: 0
Soybean (Glycine max); Preemergence, 125 g ai/ha
  Plant response rating, Soybean: 0
Soybean (Glycine max); Preemergence, 250 g ai/ha
  Plant response rating, Soybean: 0
Soybean (Glycine max); Preemergence, 500 g ai/ha
  Plant response rating, Soybean: 0
Soybean (Glycine max); [13]
  Plant response rating, Soybean: 0
[5]; Postemergence, 62 g ai/ha
  Plant response rating (0 to 100), Crabgrass, Large: 0
[5]; Postemergence, 125 g ai/ha
  Plant response rating (0 to 100), Crabgrass, Large: 5
[5]; [11]
  Plant response rating, Crabgrass, Large: 5
[5]; [12]
  Plant response rating, Crabgrass, Large: 5
[5]; Preemergence, 62 g ai/ha
  Plant response rating, Crabgrass, Large: 0
[5]; Preemergence, 125 g ai/ha
  Plant response rating, Crabgrass, Large: 0
[5]; Preemergence, 250 g ai/ha
  Plant response rating, Crabgrass, Large: 0
[5]; Preemergence, 500 g ai/ha
  Plant response rating, Crabgrass, Large: 0
[6]; Postemergence, 62 g ai/ha
  Plant response rating (0 to 100), Foxtail, Giant: 0
[6]; Postemergence, 125 g ai/ha
  Plant response rating (0 to 100), Foxtail, Giant: 0
[6]; [11]
  Plant response rating, Foxtail, Giant: 0
[6]; [12]
  Plant response rating, Foxtail, Giant: 0
[6]; Preemergence, 62 g ai/ha
  Plant response rating, Foxtail, Giant: 0
[6]; Preemergence, 125 g ai/ha
  Plant response rating, Foxtail, Giant: 0
[6]; Preemergence, 250 g ai/ha
  Plant response rating, Foxtail, Giant: 0
[6]; Preemergence, 500 g ai/ha
  Plant response rating, Foxtail, Giant: 0
[7]; Postemergence, 62 g ai/ha
  Plant response rating (0 to 100), Galium: 0
[7]; Postemergence, 125 g ai/ha
  Plant response rating (0 to 100), Galium: 0
[7]; [11]
  Plant response rating, Galium: 20
[7]; [12]
  Plant response rating, Galium: 30
[7]; Preemergence, 62 g ai/ha
  Plant response rating, Galium: 0
[7]; Preemergence, 125 g ai/ha
  Plant response rating, Galium: 0
[7]; Preemergence, 250 g ai/ha
  Plant response rating, Galium: 0
[7]; Preemergence, 500 g ai/ha
  Plant response rating, Galium: 0
[8]; Postemergence, 62 g ai/ha
  Plant response rating (0 to 100), Nutsedge, Yellow: 0
[8]; Postemergence, 125 g ai/ha
  Plant response rating (0 to 100), Nutsedge, Yellow: 0
[8]; [11]
  Plant response rating, Nutsedge, Yellow: 0
[8]; [12]
  Plant response rating, Nutsedge, Yellow: 0
[8]; Preemergence, 62 g ai/ha
  Plant response rating, Nutsedge, Yellow: 0
[8]; Preemergence, 125 g ai/ha
  Plant response rating, Nutsedge, Yellow: 0
[8]; Preemergence, 250 g ai/ha
  Plant response rating, Nutsedge, Yellow: 0
[8]; Preemergence, 500 g ai/ha
  Plant response rating, Nutsedge, Yellow: 0
[9]; Postemergence, 62 g ai/ha
  Plant response rating (0 to 100), Wheat: 0
[9]; Postemergence, 125 g ai/ha
  Plant response rating (0 to 100), Wheat: 0
[9]; [11]
  Plant response rating, Wheat: 0
[9]; [12]
  Plant response rating, Wheat: 0
[9]; Preemergence, 62 g ai/ha
  Plant response rating, Wheat: 0
[9]; Preemergence, 125 g ai/ha
  Plant response rating, Wheat: 0
[9]; Preemergence, 250 g ai/ha
  Plant response rating, Wheat: 0
[9]; Preemergence, 500 g ai/ha
  Plant response rating, Wheat: 0
[9]; Preemergence, 0 to 100 scale (0 no effect, 100 complete control), rate 500 g ai/ha
  Plant response rating, Wheat: 0
[10]; Postemergence, 62 g ai/ha
  Plant response rating (0 to 100), Blackgrass: 0
[10]; Postemergence, 125 g ai/ha, scale 0 to 100
  Plant response rating, Blackgrass: 0
[10]; [11]
  Plant response rating, Blackgrass: 0
[10]; [12]
  Plant response rating, Blackgrass: 0
[10]; Preemergence, 62 g ai/ha
  Plant response rating, Blackgrass: 0
[10]; Preemergence, 125 g ai/ha
  Plant response rating, Blackgrass: 0
[10]; Preemergence, 250 g ai/ha
  Plant response rating, Blackgrass: 0
[10]; Preemergence, 500 g ai/ha
  Plant response rating, Blackgrass: 0
